We go through 12 molecules from patent US11492348B2, “Tri-substituted aryl and heteroaryl derivatives as modulators of PI3-kinase and autophagy pathways” (Neuropore Therapies, Inc., priority 2018, dated 2022).

Test [1] addresses PI3Kα (Homo sapiens (Human), UniProt P42336). In words: Inhibition of PI3Kα (ADP-Glo kinase activity assay, ATP to ADP conversion). Particulars: 25 μM PIP2:PS, 60 μM ATP, 30 min reaction, luminescence. Format: biochemical. In a few lines: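 Recombinant active PI3Kα (1.1 nM) in HEPES pH 7.5 buffer with 6 mM MgCl2 and 8 mM DTT was preincubated with compound for 0 or 3 h. The reaction ran for 30 min with 25 µM PIP2:PS and 60 µM ATP, and ADP formation was read by ADP-Glo luminescence. IC50 came from a 12-point, 1:3 series fitted with a 4-parameter model, bottom fixed to reference inhibitor controls and top floating.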
A general note: In ADP-Glo the light output rises with the ADP produced.

The target of test [2] is mTor kinase (Homo sapiens (Human), UniProt P42345). In words: mTor assay (33P-ATP filter-binding kinase assay). Format: biochemical. Particulars: 2 hours at room temperature. As for the experimental part: The substrate was prepared in base reaction buffer (20 mM Hepes (pH 7.5), 10 mM MgCl2, 1 mM EGTA, 0.02% Brij35, 0.02 mg/ml BSA, 0.1 mM Na3VO4, 2 mM DTT, 1% DMSO), and required cofactors were added to the substrate solution. The mTor kinase was delivered into the substrate solution, and the solution was gently mixed. Testing compounds were dissolved in 100% DMSO to specific concentration. The serial dilution was conducted by Integra Viaflo Assist in DMSO. The compounds were delivered into the kinase reaction mixture by Acoustic technology (Echo550; nanoliter range), and the reaction mixture was incubated for 20 min at room temperature. Then, 33P-ATP (Specific activity 10 μCi/μl) was delivered into the reaction mixture to initiate the reaction. The reaction mixture was incubated for 2 hours at room temperature. Radioactivity was detected by a filter-binding method. Kinase activity data were expressed as the percent remaining kinase activity in test samples compared to vehicle (dimethyl sulfoxide) reactions. IC50 values and curve fits were obtained using Prism (GraphPad Software).

Test [3] deals with (Ser-473) pAKT in B103 (Rat Neuroblastoma) cells. In words: pAKT protocol: loss of (Ser-473) pAKT by AlphaScreen in insulin-stimulated B103 cells. Format: cell-based. The settings on record: (Ser-473) pAKT/total AKT IC50, 2-hour pretreatment, 2.5 μg/mL insulin 20 minutes. The procedure, abridged:
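Rat neuroblastoma B103 cells, serum-starved 6 h, were pretreated 2 h with inhibitors (6-point 1:3 series, 0.5% DMSO) before insulin stimulation. Lysate Ser-473 pAKT and total AKT measured by AlphaScreen; pAKT/total AKT ratio fitted to 4-parameter curve, bottom constrained to reference control, top anchored to DMSO.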

PI3Kα, sequence (P42336 whole entry): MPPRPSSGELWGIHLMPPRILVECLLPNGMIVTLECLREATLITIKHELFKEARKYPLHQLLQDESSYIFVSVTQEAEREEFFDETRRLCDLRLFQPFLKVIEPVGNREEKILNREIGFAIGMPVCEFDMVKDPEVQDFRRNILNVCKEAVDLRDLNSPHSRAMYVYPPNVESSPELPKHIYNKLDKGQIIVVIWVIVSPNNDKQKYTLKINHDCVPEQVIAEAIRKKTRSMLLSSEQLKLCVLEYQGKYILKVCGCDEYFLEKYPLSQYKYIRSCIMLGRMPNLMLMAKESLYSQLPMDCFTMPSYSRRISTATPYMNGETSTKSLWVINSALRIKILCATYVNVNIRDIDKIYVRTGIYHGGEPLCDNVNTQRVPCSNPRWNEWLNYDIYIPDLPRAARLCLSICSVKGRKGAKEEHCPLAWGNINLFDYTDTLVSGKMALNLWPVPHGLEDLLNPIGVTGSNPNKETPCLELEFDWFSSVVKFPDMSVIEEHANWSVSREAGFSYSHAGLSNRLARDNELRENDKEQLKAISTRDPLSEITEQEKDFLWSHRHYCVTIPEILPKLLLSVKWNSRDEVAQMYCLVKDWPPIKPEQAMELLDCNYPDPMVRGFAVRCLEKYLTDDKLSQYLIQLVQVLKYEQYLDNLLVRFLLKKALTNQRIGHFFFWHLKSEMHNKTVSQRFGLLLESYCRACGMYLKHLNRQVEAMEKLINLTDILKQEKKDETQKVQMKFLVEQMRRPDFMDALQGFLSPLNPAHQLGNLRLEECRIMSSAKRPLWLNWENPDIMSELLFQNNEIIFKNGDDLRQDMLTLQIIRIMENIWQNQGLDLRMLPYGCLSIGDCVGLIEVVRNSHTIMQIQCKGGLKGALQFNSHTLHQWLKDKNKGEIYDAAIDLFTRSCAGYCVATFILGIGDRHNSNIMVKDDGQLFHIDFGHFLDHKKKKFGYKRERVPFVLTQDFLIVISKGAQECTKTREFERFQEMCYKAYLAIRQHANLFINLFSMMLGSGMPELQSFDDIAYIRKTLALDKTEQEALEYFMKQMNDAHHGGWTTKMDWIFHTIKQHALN
PI3Kα, sequence (P27986 whole entry partner): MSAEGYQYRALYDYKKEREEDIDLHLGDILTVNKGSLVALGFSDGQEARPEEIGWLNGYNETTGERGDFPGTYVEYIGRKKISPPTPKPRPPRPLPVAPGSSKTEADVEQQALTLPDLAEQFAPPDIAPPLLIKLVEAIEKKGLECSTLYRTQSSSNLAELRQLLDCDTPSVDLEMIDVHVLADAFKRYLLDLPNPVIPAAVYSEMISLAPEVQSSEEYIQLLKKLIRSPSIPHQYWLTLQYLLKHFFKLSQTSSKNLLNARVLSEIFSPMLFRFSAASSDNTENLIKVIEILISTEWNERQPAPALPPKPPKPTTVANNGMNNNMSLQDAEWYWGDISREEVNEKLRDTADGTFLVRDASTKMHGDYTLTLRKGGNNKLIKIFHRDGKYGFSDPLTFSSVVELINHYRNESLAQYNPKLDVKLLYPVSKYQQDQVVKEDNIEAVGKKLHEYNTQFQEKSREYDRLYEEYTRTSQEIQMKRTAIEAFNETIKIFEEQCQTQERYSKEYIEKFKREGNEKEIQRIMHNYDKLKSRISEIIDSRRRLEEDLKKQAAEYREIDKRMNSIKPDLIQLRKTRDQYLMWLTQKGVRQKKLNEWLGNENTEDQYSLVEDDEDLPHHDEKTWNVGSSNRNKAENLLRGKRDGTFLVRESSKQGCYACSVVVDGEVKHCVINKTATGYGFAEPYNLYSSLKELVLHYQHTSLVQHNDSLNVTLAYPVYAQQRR

As a reminder, the IC50 is the concentration that inhibits the measured activity by half. As for `Nc1ncc(-c2cc(N3CCOCC3)cc(S(=O)(=O)Cc3ccc(F)cc3)c2)cn1` [Compound 29, 5-(3-((4-fluorobenzyl)sulfonyl)-5-morpholinophenyl)pyrimidin-2-amine], the “PI3Ka IC50” value in test [1] came to 0.37 µM. In addition, the IC50 in test [2] and in test [3] was 10.9 µM in each case.

Take `Nc1ncc(-c2cc(Oc3ccccc3)cc(N3CCOCC3)n2)cn1` [Compound 120, 5-(6-morpholino-4-phenoxypyridin-2-yl)pyrimidin-2-amine]: the “PI3Ka IC50” value in test [1] came out at 0.091 µM. Besides, the results for the IC50 in test [2] and in test [3] were 0.48 µM and 0.64 µM, respectively.

For the molecule `Nc1ncc(-c2cc(N3CCOCC3)cc(S(=O)(=O)C3CCC(F)(F)CC3)c2)cn1` [Compound 88, 5-(3-((4,4-difluorocyclohexyl)sulfonyl)-5-morpholinophenyl)pyrimidin-2-amine], the “PI3Ka IC50” value in test [1] came out at 0.53 µM. Also, the results for the IC50 in test [2] and in test [3] were 2.46 µM and 6.54 µM, respectively.

As for `Nc1ncc(-c2cc(N3CCOCC3)cc(S(=O)(=O)C3CCOC3)c2)cn1` (stereo not drawn) [Compound 51, 5-(3-morpholino-5-((tetrahydrofuran-3-yl)sulfonyl)phenyl)pyrimidin-2-amine], the “PI3Ka IC50” value in test [1] came out at 0.12 µM. For the same molecule, the results for the IC50 in test [2] and in test [3] were 0.46 µM and 2.12 µM, respectively.

For the molecule `Nc1ncc(-c2cc(N3CCOCC3)cc(S(=O)(=O)c3ccc(OC(F)(F)F)cc3)c2)cn1` [Compound 15, 5-(3-morpholino-5-((4-(trifluoromethoxy)phenyl)sulfonyl)phenyl) pyrimidin-2-amine], the “PI3Ka IC50” value in test [1] amounted to 3.5 µM. The IC50 in test [2] turned out to be 22 µM; in test [3], 100 µM.

For the molecule `Nc1ncc(-c2cc(C(F)(F)c3ccccc3)cc(N3CCOCC3)n2)cn1` [Compound 123, 5-(4-(Difluoro(phenyl)methyl)-6-morpholinopyridin-2-yl)pyrimidin-2-amine], the “PI3Ka IC50” value in test [1] was 0.046 µM. Also, the IC50 in test [2] came to 0.56 µM; in test [3], 0.46 µM.

`O=S(=O)(c1ccccc1)c1cc(-c2cnc(NC3CC3)nc2)cc(N2CCOCC2)c1` [Compound 20, N-cyclopropyl-5-(3-morpholino-5-(phenylsulfonyl)phenyl)pyrimidin-2-amine]: the “PI3Ka IC50” value in test [1] turned out to be 2.7 µM. Moreover, the IC50 in test [2] was found to be 10 µM; in test [3] it was 100 µM.

Consider `Nc1ncc(-c2cc(N3CCOCC3)cc(S(=O)(=O)C3CCOCC3)c2)cn1` [Compound 62, 5-(3-morpholino-5-((tetrahydro-2H-pyran-4-yl)sulfonyl)phenyl)pyrimidin-2-amine], for which the “PI3Ka IC50” value in test [1] was 0.33 µM. Moreover, the IC50 in test [2] turned out to be 1.87 µM; in test [3], 6.47 µM.

With `N#Cc1ccc(S(=O)(=O)c2cc(-c3cnc(N)cc3C(F)(F)F)cc(N3CCOCC3)c2)cc1` [Compound 18, 4-((3-(6-amino-4-(trifluoromethyl)pyridin-3-yl)-5-morpholinophenyl)sulfonyl)benzonitrile], the “PI3Ka IC50” value in test [1] is 3.9 µM. Moreover, the IC50 in test [2] and in test [3] was 100 µM throughout.

As to `N#Cc1ccc(S(=O)(=O)c2cc(-c3cnc(N)nc3)cc(N3CCOCC3)c2)cc1` [Compound 10, 4-((3-(2-aminopyrimidin-5-yl)-5-morpholinophenyl)sulfonyl)benzonitrile], the “PI3Ka IC50” value in test [1] was 0.46 µM. Also, the IC50 in test [2] was 0.64 µM; in test [3], 30.7 µM.

Regarding `Nc1cc(Cl)c(-c2cc(N3CCOCC3)cc(S(=O)(=O)[C@@H]3CCOC3)c2)cn1` [Compound 107, (R)-4-chloro-5-(3-morpholino-5-((tetrahydrofuran-3-yl)sulfonyl)phenyl)pyridin-2-amine], the “PI3Ka IC50” value in test [1] was 0.067 µM. The IC50 worked out at 4.33 µM in test [2] and 3.7 µM in test [3].

As for `COc1ccc(CS(=O)(=O)c2cc(-c3cnc(N)nc3)cc(N3CCOCC3)c2)cc1` [Compound 28, 5-(3-((4-methoxybenzyl)sulfonyl)-5-morpholinophenyl)pyrimidin-2-amine], the IC50 in test [1] (read-out: PI3Ka IC50) was determined as 0.37 µM; in test [2] it was 7.9 µM; in test [3], 13 µM.
